Experimental data published in patent US20210371413A1, “POLYCYCLIC AMIDES AS CYTOTOXIC AGENTS” (FEMTOGENIX LIMITED, priority 2018, published 2021).

Tests used:
[1] = system: 5′-[…]-3′ (poly GC) DNA duplex; assay: FRET DNA melting, poly GC duplex; assay type: binding; settings: 5′-AATAGGGGGTCGCCTATT-3′
Procedure: FRET DNA melting studies were undertaken on 15 and 16 using two fluorescently labelled sequences. The sequences (FIG. 1) were designed to represent poly AT and poly GC sequences.
The short duplexes used in this FRET study are relatively unstable in the duplex form with a melting temperature below 30° C. so that, in the absence of ligand, a large part of the melting occurs below the starting temperature of the experiment. However, it can be observed that 15 stabilizes the duplex form, producing increases in melting temperature with ΔTm values of […] for 5′-AAAAAAAGAAAAAATIT-3′ (FIG. 2, top panel), and ˜25° C. (FIG. 2, bottom panel).
Oligonucleotides were obtained from ATDbio (Southampton, UK) in lyophilised form. […]
The reaction mixture was comprised of 4 μL of 250 mM phosphate buffer (final concentration of 50 mM), 4 μL flourophor and 4 μL quencher molecule of the appropriate oligonucleotide for a final concentration of 0.2 μM, 4 μL 5 M sodium chloride (final concentration of 1 M NaCl), and 4 μL of distilled H2O. […] This mixture was analysed without prior annealing.
Fluorescence melting profiles were measured using a Roche LightCycler using a total reaction volume of 20 μL. […] Annealing steps and melting steps were all recorded and changes in fluorescence were measured at 520 nm. […]

[2] = system: LIM1215; assay: In vitro cell-killing, MTT assay, LIM1215; assay type: cell-based; settings: LIM1215, 72 h, read-out: In vitro cell-killing (IC50), Cytotoxicity (72 hours)
Procedure: Tumor cell lines were maintained in RPMI1640 medium supplemented with 10% heat-inactivated fetal bovine serum, 2 mM L-glutamine and 1 mM sodium pyruvate. 1800 cells per well were seeded in a volume of 180 μl in a 96-well flat bottom polystyrene plate. The cells were allowed to adhere overnight at 37° C. in a CO2 incubator. Ligands were initially formulated in DMSO, and stocks stored at −80° C. They were then further formulated at lox concentration in RPMI1640 medium. 20 ul of diluted samples were added into each treatment well. On each plate, blank wells with no cells, and untreated wells containing cells, were included. Plates were then cultured at 37° C. in a CO2 incubator for 72 hrs. Cytotoxicity was evaluated using a tetrazolium salt-based assay, the MTT assay. After 72 hours, the supernatant was removed from each well and 200 μl of a sterile filtered 500 μg/ml MTT solution in water added to each well. […] The plate was then read on a plate reader at 540 nm, and percentage cell survival calculated as follows: ((mean absorbance treated wells at concentration x−mean absorbance blank wells)+(mean absorbance untreated wells at concentration x−mean absorbance blank wells))×100. Data were plotted as concentration in nM vs. % cell survival in Microsoft Excel, and IC50 values (concentration where cell survival is reduced by a half) were determined from the graph.

What does the source list for `COc1cc2c(cc1OCCCC(=O)Nc1cc(C(=O)Nc3ccc(-c4cc(C(=O)Nc5ccc(N)cc5)n(C)c4)cc3)n(C)c1)NC[C@@H]1CCCCN1C2=O` [Compound 16, (S)—N-(4-Aminophenyl)-4-(4-(4-(4-((2-methoxy-12-oxo-5,6,6a,7,8,9,10,12-octahydrobenzo[e]pyrido[1,2-a][1,4]diazepin-3-yl)oxy)butanamido)-1-methyl-1H-pyrrole-2-carboxamido)phenyl)-1-methyl-1H-pyrrole-2-carboxamide]?
interactivity with the poly-GC sequence (FRET) [1]: little interactivity; IC50 [2]: 0.072 µM
